Assay results reported in publication PMC4673880, “Structure and substrate selectivity of the 750-kDa α6β6 holoenzyme of geranyl-CoA carboxylase” (Nature Communications, 2015).

Target: T1, PfGCC (geranyl-CoA carboxylase holoenzyme, α6β6) (Pseudomonas protegens, UniProt Q4K8Z5)
T1 construct: gene atuC; bicistronic; beta N-terminal His6-tagged (tag not removed), alpha untagged; expressed in E. coli BL21 Star (DE3); 750-kDa α6β6 dodecamer; with Geranyl-CoA carboxylase alpha subunit (biotin-containing; BC, BT and BCCP domains)
Assay: coupled pyruvate kinase / lactate dehydrogenase assay, ATP hydrolysis as NADH loss at […] nm
Format: biochemical
Conditions: pH 8.0, 0.5 mM ATP, 8 mM MgCl2, 40 mM KHCO3, 250 mM KCl; cis/trans mixture, only ~25% cis, concentration counted as total; read-out: apparent Km

geranyl-CoA
Km: 50 µM
